ChEMBL document CHEMBL6109155, “Discovery of Phenylacylpiperidine as Novel sEH Inhibitors through Scaffold Hopping of Natural Stilbene” (J Med Chem, 2025)
pIC50: −log10 of the molar value. Activity calls are given as the source filed them. The calls are words filed in the database; no cut-off is given here.

Legend:
[1] = target: T1, Bifunctional epoxide hydrolase 2 (Mus musculus, UniProt P34914); assay: biochemical
T1 sequence (P34914 whole entry): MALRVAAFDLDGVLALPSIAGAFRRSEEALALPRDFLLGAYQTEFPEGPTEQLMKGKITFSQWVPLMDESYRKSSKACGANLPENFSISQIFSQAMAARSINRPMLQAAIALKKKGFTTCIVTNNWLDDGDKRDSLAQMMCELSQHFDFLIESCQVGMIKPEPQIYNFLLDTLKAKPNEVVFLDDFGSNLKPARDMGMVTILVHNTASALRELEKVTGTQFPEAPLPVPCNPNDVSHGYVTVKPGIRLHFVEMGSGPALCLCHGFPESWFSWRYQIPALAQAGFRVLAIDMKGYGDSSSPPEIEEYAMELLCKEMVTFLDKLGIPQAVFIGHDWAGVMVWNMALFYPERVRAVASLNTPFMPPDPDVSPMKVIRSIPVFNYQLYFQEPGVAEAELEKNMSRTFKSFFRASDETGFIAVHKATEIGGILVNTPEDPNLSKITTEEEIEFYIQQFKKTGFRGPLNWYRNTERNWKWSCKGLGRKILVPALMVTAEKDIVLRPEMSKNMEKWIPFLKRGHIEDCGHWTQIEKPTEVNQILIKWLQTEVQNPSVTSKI
Description: Inhibition of C57BL/6J mouse brain sEH using 14,15-EET as substrate preincubated for 15 mins followed by substrate addition by HPLC-MS analysis

[2] = Cmax in brain of C57BL/6J mouse at 20 mg/kg, po measured for 24 hrs; assay type: ADME, organism-based
[3] = AUC (0 to 24 hrs) in brain of C57BL/6J mouse at 20 mg/kg, po measured for 24 hrs; assay type: ADME, organism-based
[4] = Ratio of Cmax in kidney to plasma in C57BL/6J mouse at 20 mg/kg, po measured for 24 hrs; assay type: ADME, organism-based; details: kidney and plasma
[5] = Ratio of AUC (0 to 24 hrs) in kidney to plasma in C57BL/6J mouse at 20 mg/kg, po measured for 24 hrs; assay type: ADME, organism-based; details: kidney and plasma, read-out: Ratio AUC
Mus musculus [6] = assay: Anti-inflammatory activity in BALB/c mouse model of carrageenan-induced paw edema assessed as inhibition of paw swelling at 20 mg/kg, po measured for 2 hrs relative to control; assay type: functional
[7] = Ratio of Cmax in brain to plasma in C57BL/6J mouse at 20 mg/kg, po measured for 24 hrs; assay type: ADME, organism-based; details: brain and plasma
[8] = AUC (0 to 24 hrs) in kidney of C57BL/6J mouse at 20 mg/kg, po measured for 24 hrs; assay type: ADME, organism-based
[9] = Cmax in kidney of C57BL/6J mouse at 20 mg/kg, po measured for 24 hrs; assay type: ADME, organism-based
Mus musculus [10] = assay: Anti-inflammatory activity in BALB/c mouse model of carrageenan-induced paw edema assessed as inhibition of paw swelling at 20 mg/kg, po measured for 0.5 hrs relative to control; assay type: functional
[11] = AUC (0 to 24 hrs) in liver of C57BL/6J mouse at 20 mg/kg, po measured for 24 hrs; assay type: ADME, organism-based
[12] = Cmax in liver of C57BL/6J mouse at 20 mg/kg, po measured for 24 hrs; assay type: ADME, organism-based
[13] = Ratio of Cmax in liver to plasma in C57BL/6J mouse at 20 mg/kg, po measured for 24 hrs; assay type: ADME, organism-based; details: liver and plasma
[14] = Ratio of AUC (0 to 24 hrs) in brain to plasma in C57BL/6J mouse at 20 mg/kg, po measured for 24 hrs; assay type: ADME, organism-based; details: brain and plasma, read-out: Ratio AUC
[15] = Cmax in plasma of C57BL/6J mouse at 20 mg/kg, po measured for 24 hrs; assay type: ADME, organism-based
Mus musculus [16] = assay: Anti-inflammatory activity in BALB/c mouse model of carrageenan-induced paw edema assessed as inhibition of paw swelling at 20 mg/kg, po measured for 6 hrs relative to control; assay type: functional
[17] = AUC (0 to 24 hrs) in plasma of C57BL/6J mouse at 20 mg/kg, po measured for 24 hrs; assay type: ADME, organism-based
Mus musculus [18] = assay: Analgesic effect in BALB/c mouse model of acetic acid-induced writhing assessed as reduction in number of writhing episodes at 20 mg/kg, po pretreated for 1 hr followed by acetic acid treatment and measured after 5 to 35 mins relative to control; assay type: functional; design: scale not given: the % may be the effect or the level left; details: time 65-95 min
[19] = Ratio of AUC (0 to 24 hrs) in liver to plasma in C57BL/6J mouse at 20 mg/kg, po measured for 24 hrs; assay type: ADME, organism-based; details: liver and plasma, read-out: Ratio AUC
Mus musculus [20] = assay: Anti-inflammatory activity in BALB/c mouse model of carrageenan-induced paw edema at 20 mg/kg, po measured for 0.5 to 6 hrs; assay type: functional, organism-based; details: time 0.5-6 hrs
Mus musculus [21] = assay: Anti-inflammatory activity in BALB/c mouse model of carrageenan-induced paw edema assessed as inhibition of paw swelling at 20 mg/kg, po measured for 0.5 to 6 hrs relative to control; assay type: functional; details: time 0.5-6 hrs

CCC(=O)N1CCC(CNC(=O)NC2CCN(C(=O)Cc3ccc4c(c3)OCO4)CC2)CC1
pIC50 [1]: 8.02

CC(C)C(=O)NCCC/C=C/c1ccc2c(c1)OCO2
pIC50 [1]: 5.31

CCC(=O)N1CCC(CNC(=O)NC2CCN(C(=O)Cc3ccc(OC(F)(F)F)cc3)CC2)CC1
pIC50 [1]: 8.00

CCC(=O)N1CCC(CNC(=O)NC2CCN(C(=O)Cc3cc(OC)cc(OC)c3)CC2)CC1
Cmax [2]: 44.9 ng/g | AUC(0-t) at 24 h [3]: 173 ng·h/mL | pIC50 [1]: 7.97 | Kp at 24 h [4]: 52.3 | Kp at 24 h [5]: 135 | inhibition in vivo at 20 mg/kg (Mus musculus [6]): 50.8% | Kp at 24 h [7]: 0.59 | AUC(0-t) at 24 h [8]: 43400 ng·h/mL | Cmax [9]: 4010 ng/g | inhibition in vivo at 20 mg/kg (Mus musculus [10]; Mus musculus, BALB/c): 38.6% | AUC(0-t) at 24 h [11]: 76700 ng·h/mL | Cmax [12]: 5940 ng/g | Kp at 24 h [13]: 77.5 | Kp at 24 h [14]: 0.53 | Cmax [15]: 76.7 ng/mL | inhibition in vivo at 20 mg/kg (Mus musculus [16]): 37.6% | AUC(0-t) at 24 h [17]: 323 ng·h/mL | Activity (Mus musculus [18]): 60% | Kp at 24 h [19]: 237

CS(=O)(=O)c1ccc(CC(=O)N2CCC(NC(=O)NCc3ccc(OC(F)(F)F)cc3)CC2)cc1
pIC50 [1]: 8.42 | Imax (Mus musculus [10]): 35.9%

CCC(=O)N1CCC(CNC(=O)NC2CCN(C(=O)Cc3cccc(OC(F)(F)F)c3)CC2)CC1
pIC50 [1]: 7.73

COc1cc(OC)cc(C(=O)N2CCC(NC(=O)NCc3ccc(OC(F)(F)F)cc3)CC2)c1
pIC50 [1]: 8.65

CN(C)C(=O)NC1CCN(C(=O)Cc2ccc3c(c2)OCO3)CC1
pIC50 [1]: 4.19

CN(C)C(=O)NCCCC/C=C/c1ccc2c(c1)OCO2
pIC50 [1]: 5.19

CC(C)CNC(=O)NCCNC(=O)Cc1ccc2c(c1)OCO2
pIC50 [1]: 5.37

CC(C)CNC(=O)NCCCCNC(=O)Cc1ccc2c(c1)OCO2
pIC50 [1]: 8.73

COc1cc(CCC(=O)N2CCC(NC(=O)NCc3ccc(OC(F)(F)F)cc3)CC2)cc(OC)c1
pIC50 [1]: 9.14 | Activity (Mus musculus [20]): Active | Imax (Mus musculus [10]): 28.3%

COc1cc(OC)cc(-c2cc3ccc(NC(=O)NCc4ccc(OC(F)(F)F)cc4)cc3cn2)c1
Imax (Mus musculus [21]): 12.7% | pIC50 [1]: 8.71

COc1cc(CC(=O)N2CCC(NC(=O)NCc3ccc(C#N)cc3)CC2)cc(OC)c1
pIC50 [1]: 7.84

CN(C)C(=O)N1CCC(NC(=O)Cc2ccc3c(c2)OCO3)CC1
pIC50 [1]: 5.19

COc1cc(CC(=O)N2CCC(NC(=O)NCC3CCOCC3)CC2)cc(OC)c1
pIC50 [1]: 7.73

CCC(=O)NCCCCNC(=O)NC1CCN(C(=O)Cc2cc(OC)cc(OC)c2)CC1
pIC50 [1]: 5.79

COc1ccc(CC(=O)N2CCC(NC(=O)NCc3ccc(OC(F)(F)F)cc3)CC2)cc1OC
pIC50 [1]: 8.37

CC(C)CNC(=O)NCCC/C=C/c1ccc2c(c1)OCO2
pIC50 [1]: 7.95

O=C(NCc1ccc(OC(F)(F)F)cc1)NC1CCN(C(=O)Cc2ccc(OC(F)(F)F)cc2)CC1
pIC50 [1]: 8.65

CCC(=O)N1CCC(CNC(=O)NC2CCN(C(=O)Cc3cccc(OC)c3)CC2)CC1
pIC50 [1]: 8.21

COc1cc(CC(=O)N2CCC(NC(=O)NCCN(C)C)CC2)cc(OC)c1
pIC50 [1]: 4.80

CC(C)CNC(=O)NCCCC#Cc1ccc2c(c1)OCO2
pIC50 [1]: 7.66

O=C(Cc1ccccn1)Nc1cccc(CC(=O)N2CCC(NC(=O)NCc3ccc(OC(F)(F)F)cc3)CC2)c1
pIC50 [1]: 8.51

CCC(=O)N1CCC(NC(=O)NC2CCN(C(=O)Cc3cc(OC)cc(OC)c3)CC2)CC1
pIC50 [1]: 6.79

CC(C)CNC(=O)NCC1CCN(C(=O)Cc2ccc3c(c2)OCO3)CC1
pIC50 [1]: 6.68

COc1cccc(CC(=O)N2CCC(NC(=O)NCc3ccc(OC(F)(F)F)cc3)CC2)c1
pIC50 [1]: 9.27 | Activity (Mus musculus [20]): Active

CCC(=O)N1CCC(CNC(=O)Nc2ccc3cc(-c4cc(OC)cc(OC)c4)ncc3c2)CC1
pIC50 [1]: 8.28

O=C(Cc1ccc2c(c1)OCO2)NCCCCNC(=O)NCC1CCOCC1
pIC50 [1]: 5.90

CC(C)CNC(=O)N1CCC(NC(=O)Cc2ccc3c(c2)OCO3)CC1
pIC50 [1]: 5.46

CCC(=O)N1CCC(CNC(=O)Nc2ccc3c(c2)CNC(c2cc(OC)cc(OC)c2)C3)CC1 (stereo not drawn)
pIC50 [1]: 7.40

COc1cc(CC(=O)N2CCC(NC(=O)Nc3ccc(OC(F)(F)F)cc3)CC2)cc(OC)c1
pIC50 [1]: 7.81

CC(C)CNC(=O)NC1CCN(CCc2ccc3c(c2)OCO3)CC1
pIC50 [1]: 5.88

CC(C)CNC(=O)NCCCCCNC(=O)Cc1ccc2c(c1)OCO2
pIC50 [1]: 6.58

COc1ccc(CC(=O)N2CCC(NC(=O)NCC(C)C)CC2)cc1OC
pIC50 [1]: 7.70

O=C(NCc1ccc(OC(F)(F)F)cc1)NC1CCN(C(=O)Cc2cccc(OC(F)(F)F)c2)CC1
pIC50 [1]: 9.04 | Activity (Mus musculus [20]): Active | Imax (Mus musculus [10]): 39.7%

COc1cc(CC(=O)N2CCC(NC(=O)NCC(C)C)CC2)cc(OC)c1
pIC50 [1]: 7.96

CC(C)CNC(=O)NC1CCN(C(=O)Cc2ccc3c(c2)OCO3)CC1
pIC50 [1]: 7.60

O=C(NCc1ccc(OC(F)(F)F)cc1)NC1CCN(C(=O)Cc2ccc3c(c2)OCO3)CC1
pIC50 [1]: 9.07 | Activity (Mus musculus [20]): Active | Imax (Mus musculus [10]): 36.3%

CCC(=O)N1CCC(CNc2c(NC3CCN(C(=O)Cc4cc(OC)cc(OC)c4)CC3)c(=O)c2=O)CC1
pIC50 [1]: 3.78

CN(C)C(=O)NCCC/C=C/c1ccc2c(c1)OCO2
pIC50 [1]: 6.59

CC(C)CNC(=O)NCCCNC(=O)Cc1ccc2c(c1)OCO2
pIC50 [1]: 5.35

CCC(=O)N1CCC(NC(=O)Nc2ccc(OC(F)(F)F)cc2)CC1
inhibition in vivo at 20 mg/kg (Mus musculus [21]; Mus musculus, BALB/c): 28.8%

COc1cc(OC)cc(C2Cc3ccc(NC(=O)NCc4ccc(OC(F)(F)F)cc4)cc3CN2)c1 (stereo not drawn)
pIC50 [1]: 8.36

CCC(=O)N1CCC(CNC(=O)NC2CCN(C(=O)Cc3cccc(NC(=O)Cc4ccccn4)c3)CC2)CC1
pIC50 [1]: 7.69

O=C(Cc1ccccn1)Nc1cccc(CC(=O)N2CCC(NC(=O)NCC3CCOCC3)CC2)c1
pIC50 [1]: 7.26
